Assay results as given in the supplement of paper PMC10307832.

Columns and labels:
Experiment in all cases: relative viability (nuclei count vs DMSO), 5 days (fraction); higher = more cells survive
[1] = compound: CCN(CC)CCNC(=O)c1c(C)[nH]c(/C=C2\C(=O)Nc3ccc(F)cc32)c1C [Sunitinib] + CC(=O)c1c(C)c2cnc(Nc3ccc(N4CCNCC4)cn3)nc2n(C2CCCC2)c1=O [Palbociclib] (partner 0.5 µM)
In short: (§1)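 Lung cancer cell lines in 1536-well plates were dosed by pin tool the day after seeding, either with one drug alone or with a fixed anchor-drug dose plus five library-drug doses (not always all listed) in √10 steps. After 5 days, cells were fixed and their nuclei stained in one step (final 0.05% Triton X-100, 1% formaldehyde, 1 ug/ml Hoechst), then counted on 4× images. Relative viability is the nuclei count in treated wells divided by that in vehicle wells. Values are medians of duplicate plates.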

[2] = compound: CCN(CC)CCNC(=O)c1c(C)[nH]c(/C=C2\C(=O)Nc3ccc(F)cc32)c1C [Sunitinib] + CC(C)C[C@H](NC(=O)[C@H](Cc1ccccc1)NC(=O)c1cnccn1)B(O)O [Bortezomib] (partner 0.002 µM)
In short: as §1

[3] = compound: CCN(CC)CCNC(=O)c1c(C)[nH]c(/C=C2\C(=O)Nc3ccc(F)cc32)c1C [Sunitinib] + COc1cc2c(Oc3ccc(NC(=O)C4(C(=O)Nc5ccc(F)cc5)CC4)cc3F)ccnc2cc1OCCCN1CCOCC1 [Foretinib] (partner 0.25 µM)
In short: as §1

[4] = compound: CCN(CC)CCNC(=O)c1c(C)[nH]c(/C=C2\C(=O)Nc3ccc(F)cc32)c1C [Sunitinib] + CS(=O)(=O)N1CCN(Cc2cc3nc(-c4cccc5[nH]ncc45)nc(N4CCOCC4)c3s2)CC1 [Pictilisib] (partner 1 µM)
In short: as §1

| Cell Line | relative viability ([1]; first compound 0.02 µM) | relative viability ([1]; first compound 0.06325 µM) | relative viability ([1]; first compound 0.2 µM) | relative viability ([1]; first compound 0.6325 µM) | relative viability ([1]; first compound 2 µM) | relative viability ([2]; first compound 0.02 µM) | relative viability ([2]; first compound 0.06325 µM) | relative viability ([2]; first compound 0.6325 µM) | relative viability ([2]; first compound 2 µM) | relative viability ([3]; first compound 0.02 µM) | relative viability ([3]; first compound 0.06325 µM) | relative viability ([3]; first compound 0.2 µM) | relative viability ([3]; first compound 0.6325 µM) | relative viability ([3]; first compound 2 µM) | relative viability ([4]; first compound 0.02 µM) | relative viability ([4]; first compound 0.06325 µM) | relative viability ([4]; first compound 0.2 µM) | relative viability ([4]; first compound 0.6325 µM) | relative viability ([4]; first compound 2 µM) | relative viability ([2]; first compound 0.2 µM) |
| --- | --- | --- | --- | --- | --- | --- | --- | --- | --- | --- | --- | --- | --- | --- | --- | --- | --- | --- | --- | --- |
| NCI-H3122 | 0.159 | 0.189 | 0.213 | 0.176 | 0.207 | 1.01 | 1.01 | 0.985 | 0.985 | 0.904 | 0.963 | 1.04 | 0.976 | 0.97 | 0.576 | 0.64 | 0.583 | 0.577 | 0.548 |  |
| PC-3 [JPC-3] | 0.539 | 0.561 | 0.566 | 0.56 | 0.602 | 0.836 | 0.88 | 0.869 | 0.732 |  | 1.05 | 1.12 | 1.02 | 1.01 | 0.819 | 0.768 | 0.841 | 0.685 | 0.694 | 0.893 |
| PC-14 | 0.509 | 0.462 | 0.562 | 0.527 | 0.474 | 0.946 | 0.858 | 0.878 | 0.726 | 0.942 | 0.939 | 1.08 | 1 | 0.874 | 0.698 | 0.723 | 0.957 | 0.706 | 0.553 | 0.99 |
| RERF-LC-KJ | 1.07 | 1.05 | 1.03 | 0.996 | 1.21 | 0.994 |  | 1.03 | 1.09 | 0.873 | 0.907 | 0.903 | 0.87 | 0.919 | 0.642 | 0.507 | 0.51 | 0.468 | 0.528 | 1.26 |
| SK-LU-1 | 0.381 | 0.4 | 0.4 | 0.411 | 0.356 | 0.959 | 1.26 | 1.36 | 0.982 |  | 0.901 | 1.06 | 0.834 | 0.581 | 0.538 | 0.66 | 0.603 | 0.53 | 0.483 | 1.38 |
| SW 1573 | 0.412 | 0.316 | 0.42 | 0.414 | 0.397 | 0.944 | 1.11 | 1.22 | 1 | 0.879 | 0.928 | 0.889 | 1.09 | 0.998 | 0.511 | 0.438 | 0.591 | 0.555 | 0.458 | 1.2 |
| UMC-11 | 0.339 | 0.386 | 0.379 | 0.351 | 0.33 | 0.61 |  | 0.762 | 0.896 | 0.962 | 1.03 | 1.11 | 1.06 | 0.956 | 0.793 | 0.883 | 0.968 | 0.814 | 0.866 | 0.841 |
